Experimental data published in US8449886B2, “Combination of anti-CTLA4 antibody with tubulin modulating agents for the treatment of proliferative diseases” (Bristol-Myers Squibb Company, priority 2008, dated 2013).

Experiments:
[1] = test system: SA1N fibrosarcoma; assay: SA1N fibrosarcoma tumor model, subcutaneous, established tumors; format: in vivo, mice; settings: for T − C: target size 500 mm^3; for % TGI: IP every 4 days x3, ixabepilone 8 mg/kg, CTLA-4 mAb 20 mg/kg
Experimental: Antibody UC10 (hamster IgG anti-mouse CTLA-4) was produced and purified by BMS (Protein Therapeutics Division, Hopewell, N.J., USA). […] Stock solutions of anti-CTLA-4 were kept at −80° C. and were thawed out at 4° C. prior to use. Control antibody consisted of a polyclonal hamster IgG (Jackson ImmunoResearch, West Grove, Pa.). Dosing solutions of Anti-CTLA-4 and hamster IgG control were prepared weekly in sterile phosphate buffered saline (pH 7.0).
Eight to twelve week-old female BALB/c, A/J or C57/BL6 mice were purchased from Harlan, Indianapolis, Ind. Mice received food and water ad libitum, and were maintained in a controlled environment according to AALAC regulations.
(§1) Tumor cell lines were maintained in vitro. Treatments were initiated when the subcutaneous tumors reached a median size between 100-200 mm^3 (established model) or prior to detection (initiation model). Tumors were measured twice weekly and tumor size (mm^3) was calculated as […]. Body weights were obtained weekly. The tumor models used in these studies are outlined in Table 1.
(§2) The dose levels, routes and dosing schedules are indicated for each particular study described below. Antibodies and chemotherapeutic agents were administered intraperitoneally (i.p.). Each treatment regimen consisted of a cohort of eight to ten mice. Anti-tumor activity, defined as percentage tumor growth inhibition, was calculated as follows: % Tumor Growth Inhibition=100−[(Tt/To)/(Ct/Co)]/100−(Ct/Co) where,
Tt=median tumor size of treated group at the end of treatment
To=median tumor size of treated group at treatment initiation
Ct=median tumor size of control group at the end of treatment
Co=median tumor size at treatment initiation
(§3) In addition, another parameter used to define efficacy was to determine time to tumor progression to target size (T-C), where the time (days) for the median tumor size of control (C) mice to reach target size was subtracted to the time for median tumor size of treated (T) mice to reach target size.
Nonparametric analysis using the Wilcoxon test was used to determine statistical significance.
SA1N fibrosarcoma is an inherently immunogenic tumor line which is sensitive to the effects of CTLA-4 blockade. […] Animals were implanted with SA1N cells subcutaneously and treatments were initiated when tumors reached 100-150 mm^3. Experimental groups consisted of cohorts of 8 mice. […] In the combination groups, CTLA-4 mab was administered one day after each chemotherapy treatment.

[2] = test system: EMT-6 mammary carcinoma; assay: EMT-6 mammary carcinoma tumor model; format: in vivo, mice; settings: Study 27; for T − C: IP, treatment from day 3/4, ixabepilone 8 mg/kg, paclitaxel 24 mg/kg, CTLA-4 mAb 20 mg/kg
Experimental: as §1, §2, §3

[3] = test system: M109 lung carcinoma; assay: M109 lung carcinoma tumor model, initial tumor implantation; format: in vivo, mice; settings: for antitumor effect in M109: Study 40, text and FIG. 1
Experimental: as §1, §2
In these studies treatments with chemotherapeutic agents were initiated when tumors were palpable, on day 3 after tumor implantation. […] As in the studies conducted in the SA1N and EMT-6 tumor lines, CTLA-4 mAb was dosed one day after treatment with chemotherapy.

[4] = test system: CT26 colon carcinoma; assay: CT26 colon carcinoma tumor model; format: in vivo, mice; settings: for antitumor effect in CT26: footnotes and FIG. 2
Experimental: as §1
as §2, with “where, […]” for “where,”

[5] = test system: SA1N fibrosarcoma, M109 lung carcinoma, EMT-6 mammary carcinoma, CT-26 colon carcinoma and B16 melanoma; assay: Efficacy studies of CTLA-4 mAb with ixabepilone or paclitaxel across murine tumor models (summary statements); format: in vivo, mice; settings: animals with complete regressions rechallenged with a lethal dose of tumor cells
Experimental: as §1, §2, §3

[6] = test system: M109 lung carcinoma; assay: M109 rechallenge of tumor-free mice with a lethal M109 cell inoculum; format: in vivo; settings: tumor-free mice by day 97 rechallenged; 5 ixabepilone mice, 8 combination mice
Experimental: To determine whether the combination of CTLA-4+ixabepilone produced a memory immune response able to reject a secondary tumor challenge, animals free of tumors by day 97 were re-challenge with a lethal M109 cell inoculum. For this part of the study, M109 cells were injected into: a) 10 naïve mice (to control for tumor growth); and in study mice free of tumors: b) 5 mice previously treated with ixabepilone and c) 8 mice previously treated with ixabepilone+CTLA-4 mAb. All control mice developed progressive tumors with a median tumor size of 1000 mm^3 10 days later whereas 4 out of 5 mice in the Ixabepilone-treated mice developed tumors (80%).

[7] = test system: paclitaxel-sensitive (A2780, HCT116 and LS174T) and paclitaxel-resistant human colon tumors (HCT116NM46), ovarian carcinoma (Pat-7 and A2780Tax) and breast …; assay: Preclinical pharmacology studies of Compound 1 in tumor models; format: in vivo
[8] = Study 17, study terminated day 116

In the case of “5beta,20-Epoxy-1,2alpha,4,7beta,10beta,13alpha-hexahydroxytax-11-en-9-one 4,10-diacetate 2-benzoate 13-ester with (2R,3S)—N-benzoyl-3-phenylisoserine [Paclitaxel]”, the “T − C” value ([1]; Study 11, study terminated day 52) is reported as 13 days, the “T − C” value [1, 8] is reported as 0 days and the “antitumor effect in SA1N” value ([1]; two independent studies) is reported as “variable effect”. The “antitumor effect of single agent in EMT-6” value [2] was “ineffective”, the “T − C” value [2] was 0 days and the “antitumor effect in M109” value [3] was “did not produce antitumor effects”. For the same compound, the “antitumor effect in CT26” value [4] was “neither paclitaxel or ixabepilone produced any measurable antitumor activity”.

For `C/C(=C\c1csc(C)n1)[C@@H]1C[C@@H]2O[C@]2(C)CCC[C@H](C)[C@H](O)[C@@H](C)C(=O)C(C)(C)[C@@H](O)CC(=O)N1` [Ixabepilone, (1S,3S,7S,10R,11S,12S,16R)-7,11-dihydroxy-8,8,10,12,16-pentamethyl-3-[(1E)-1-methyl-2-(2-methyl-4-thiazolyl)ethenyl]-17-oxa-4-azabicyclo[14.1.0]heptadecane-5,9-dione], the “protection against subsequent tumor rechallenge” value [5] was “only partial protection”, the “% TGI” value ([1]; Study 9, calculated Day 36 (last measurement for control group)) was 92% and the “T − C” value ([1]; Study 9, study terminated day 39) was 11 days. For the same compound, the “% TGI” value ([1]; Study 17, calculated Day 33, paclitaxel 24 mg/kg) was 83%, the “T − C” value [1, 8] was 7 days and the “% Tumor-free Mice” value [2] was 20%. For the same compound, the “T − C” value [2] was 19 days, the “antitumor effect in M109” value [3] was “very effective” and the “% Tumor-Free Mice after Initial Tumor Implantation” value ([3]; Study 40, footnote: percentage of animals that develop tumors following implantation on Day 0, chemotherapy from day 3, IP) was 50%. For the same compound, the “mice that developed tumors after M109 rechallenge” value [6] was 4 out of 5, the “% Complete Regressions/Total # mice” value ([4]; IP every 4 days x3, CTLA-4 mAb 20 mg/kg days 5, 9, 13, chemotherapy days 4, 8, 12) was 0/10 and the “antitumor effect in CT26” value [4] was “neither paclitaxel or ixabepilone produced any measurable antitumor activity”.

In the case of `C/C(=C\c1csc(C)n1)[C@@H]1C[C@@H]2O[C@]2(C)CCC[C@H](C)[C@H](O)[C@@H](C)C(=O)C(C)(C)[C@@H](O)CC(=O)N1` (relative stereo) [Compound 1, [1S-[1R*,3R*(E),7R*,10S*,11R*,12R*,16S*]]-7,11-dihydroxy-8,8,10,12,16-pentamethyl-3-[1-methyl-2-(2-methyl-4-thiazolyl)ethenyl]-4-aza-17-oxabicyclo[14.1.0]heptadecane-5,9-dione], the “oral efficacy” value ([7]; oral vs parenteral administration) is reported as “orally efficacious” and the “antitumor activity” value ([7]; paclitaxel-sensitive and paclitaxel-resistant tumor models) is reported as “very impressive and broad spectrum of antitumor activity”.
